According to patent USRE45313E1, “Exendin variant peptides” (priority 1999, dated 2014):
Entries after “also recorded” stand apart in the source; their conditions may differ.

Legend:
ob/ob mice = experiment: Blood glucose levels in ob/ob mice after peroral and intraperitoneal administration (Example 25); assay type: in vivo
Source text: Forty female diabetic ob/ob mice (Umeä strain, Bomholtgaard), which are obese due to a dominant mutant leptin (Tomita, T., Doull, V., Pollock, H. G., and Krizsan, D. 1992. Pancreatic islets of obese hyperglycemic mice (ob/ob). Pancreas 7: 367-75) were housed (3 mice/cage) under controlled ambient conditions following a 12:12-h light: dark cycle and fed standard Altromin no 1324 diet with free access to tap water. At arrival the animals were 8 weeks of age. The mice were allowed 2 weeks of acclimatization before experiments were initiated. […] Handling of the mice one and three days before the experiment was performed in order to reduce stress-induced BG excursions. On the day of the experiment, blood was taken from the tip of the tail 2-3 hours after the light was turned on. A single drop of blood (<5 μl) was dropped on the glucose strip for analysis and measured by an Elite Autoanalyser, Bayer, Denmark. Whole blood glucose (BG) concentration was analysed by the immobilised glucose oxidase method. […] Six animals with BG <5.8 mM were excluded from the study (total n=36). The remaining animals were stratified based on their BG levels in order to ensure that the mean BG was similar among groups.
Various concentrations of each peptide are administered orally and intraperitoneally to ob/ob mice to determine if these compounds affect blood glucose levels. The experimental conditions used were the same as described in Example 24.
Solutions are prepared on the morning of dosing, immediately before the animals are administered. The same solutions are used for both peroral and interperitoneal administration. All peptides are dissolved in sterile isotonic NaCl and given in a volume of 0.2 ml. As negative control, saline is administered perorally.
In order to analyse the effects of the compounds, the absolute and the relative (% of t=0) difference from baseline was calculated for each time point.

diabetic ob/ob mice = experiment: Single dose effect of oral and parenteral administration on blood glucose levels in diabetic ob/ob mice (Example 24); assay type: in vivo
Source text: This was examined using Compound 5 to test the effect on blood glucose (BG) levels in the ob/ob mutant mice after intraperitoneal (i.p.) and peroral (p.o.) administration. […] Forty female diabetic ob/ob mice (Umeä strain, Bomholtgaard), which are obese due to a dominant mutant leptin (Tomita, T., Doull, V., Pollock, H. G., and Krizsan, D. 1992. Pancreatic islets of obese hyperglycemic mice (ob/ob). […] At arrival the animals were 8 weeks of age. The mice were allowed 2 weeks of acclimatization before experiments were initiated. At the time of experiment the mice were 13 weeks old with a body weight of 41.8±3.2 g (mean±SD; n=42). Handling of the mice one and three days before the experiment was performed in order to reduce stress-induced BG excursions. On the day of the experiment, blood was taken from the tip of the tail 2-3 hours after the light was turned on. A single drop of blood (<5 μl) was dropped on the glucose strip for analysis and measured by an Elite Autoanalyser, Bayer, Denmark. Whole blood glucose (BG) concentration was analysed by the immobilised glucose oxidase method. Blood glucose levels varied between normoglycaemia and severe hyperglycaemia (range: 3.6-15.6 mM; mean±SD: 9.4±3.3 mM: n=42). Six animals with BG <5.8 mM were excluded from the study (total n=36). The remaining animals were stratified based on their BG levels in order to ensure that the mean BG was similar among groups. […] Compound 5 (batch nr. ZP 3.12 fraction 1-2. […] The peptide was dissolved in sterile isotonic NaCl shortly before dosing and given in a volume of 0.2 ml. The same solutions were used for both p.o. and i.p. administration. For each animal, a data log sheet was filled out at the time of each blood sampling. […] During control conditions, BG levels in non-fasted ob/ob mice were similar in all groups (individual group data not shown), but within groups, there was a great scatter on BG levels (BG range for all animals: 5.8-15.6 mM). Therefore, to correct for the varying degree of hyperglycemia, results are expressed as the relative difference from baseline (% control). […] In most groups (5/6), BG increased between 4 and 8 hrs after drug administration. Compound 5 reduced the BG levels in a dose of 110 μg/mouse when administered i.p. in diabetic ob/ob mice (data not shown). The antidiabetic effect was observed after 60 minutes and was maximal 2-4 h after administration of the compound. […] Glucagon-like peptide-1 and the entero-insular axis in obese hyperglycaemic (ob/ob) mice.

SMILES | blood glucose relative to baseline (ob/ob mice; 1 μg po, 1 hour) | blood glucose relative to baseline (ob/ob mice; 1 μg po, 2 hours) | blood glucose relative to baseline (ob/ob mice; 1 μg po, 4 hours) | blood glucose relative to baseline (ob/ob mice; 10 μg po, 1 hour) | blood glucose relative to baseline (ob/ob mice; 10 μg po, 2 hours) | blood glucose relative to baseline (ob/ob mice; 10 μg po, 4 hours) | blood glucose relative to baseline (ob/ob mice; 100 μg ip, 1 hour) | blood glucose relative to baseline (ob/ob mice; 100 μg ip, 2 hours) | blood glucose relative to baseline (ob/ob mice; 100 μg ip, 4 hours) | blood glucose relative to baseline (ob/ob mice; 100 μg po, 1 hour) | blood glucose relative to baseline (ob/ob mice; 100 μg po, 2 hours) | blood glucose relative to baseline (ob/ob mice; 100 μg po, 4 hours) | blood glucose relative to baseline (ob/ob mice; 1000 μg po, 1 hour) | blood glucose relative to baseline (ob/ob mice; 1000 μg po, 2 hours) | blood glucose relative to baseline (ob/ob mice; 1000 μg po, 4 hours) | other results
CC[C@H](C)[C@H](NC(=O)[C@H](Cc1ccccc1)NC(=O)[C@H](CCC(=O)O)NC(=O)[C@H](CCCCN)NC(=O)[C@H](C)NC(=O)[C@H](C)NC(=O)[C@H](CCC(N)=O)NC(=O)CNC(=O)[C@H](CCC(=O)O)NC(=O)[C@H](CC(C)C)NC(=O)[C@H](Cc1ccc(O)cc1)NC(=O)[C@H](CO)NC(=O)[C@H](CO)NC(=O)[C@@H](NC(=O)[C@H](CC(=O)O)NC(=O)[C@H](CO)NC(=O)[C@@H](NC(=O)[C@H](Cc1ccccc1)NC(=O)[C@@H](NC(=O)CNC(=O)[C@H](CCC(=O)O)NC(=O)CNC(=O)[C@@H](N)Cc1c[nH]cn1)[C@@H](C)O)[C@@H](C)O)C(C)C)C(=O)N[C@@H](C)C(=O)N[C@@H](Cc1c[nH]c2ccccc12)C(=O)N[C@@H](CC(C)C)C(=O)N[C@H](C(=O)N[C@@H](CCCCN)C(=O)NCC(=O)N[C@@H](CCCNC(=N)N)C(=O)N[C@@H](CCCCN)C(=O)N[C@@H](CCCCN)C(=O)N[C@@H](CCCCN)C(=O)N[C@@H](CCCCN)C(=O)N[C@@H](CCCCN)C(=O)N[C@@H](CCCCN)C(N)=O)C(C)C [Compound 4] | 99 % of t=0 | 89 % of t=0 | 84 % of t=0 | 98 % of t=0 | 95 % of t=0 | 81 % of t=0 | 83 % of t=0 | 58 % of t=0 | 56 % of t=0 | 72 % of t=0 | 70 % of t=0 | 58 % of t=0 | 128 % of t=0 | 72 % of t=0 | 78 % of t=0 | –
CCCCCCCCCCCCCCCC(=O)NCCCC[C@H](NC(=O)[C@H](CCCNC(=N)N)NC(=O)CNC(=O)[C@H](CCCCN)NC(=O)[C@@H](NC(=O)[C@H](CC(C)C)NC(=O)[C@H](Cc1c[nH]c2ccccc12)NC(=O)[C@H](C)NC(=O)[C@@H](NC(=O)[C@H](Cc1ccccc1)NC(=O)[C@H](CCC(=O)O)NC(=O)[C@H](CCCCN)NC(=O)[C@H](C)NC(=O)[C@H](C)NC(=O)[C@H](CCC(N)=O)NC(=O)CNC(=O)[C@H](CCC(=O)O)NC(=O)[C@H](CC(C)C)NC(=O)[C@H](Cc1ccc(O)cc1)NC(=O)[C@H](CO)NC(=O)[C@H](CO)NC(=O)[C@@H](NC(=O)[C@H](CC(=O)O)NC(=O)[C@H](CO)NC(=O)[C@@H](NC(=O)[C@H](Cc1ccccc1)NC(=O)[C@@H](NC(=O)CNC(=O)[C@H](CCC(=O)O)NC(=O)CNC(=O)[C@@H](N)Cc1c[nH]cn1)[C@@H](C)O)[C@@H](C)O)C(C)C)[C@@H](C)CC)C(C)C)C(=O)N[C@@H](CCCCN)C(=O)N[C@@H](CCCCN)C(=O)N[C@@H](CCCCN)C(=O)N[C@@H](CCCCN)C(=O)N[C@@H](CCCCN)C(=O)N[C@@H](CCCCN)C(N)=O [Compound 5] | 111 % of t=0 | 133 % of t=0 | 114 % of t=0 | 90 % of t=0 | 120 % of t=0 | 126 % of t=0 | 63 % of t=0 | 50 % of t=0 | 52 % of t=0 | 97 % of t=0 | 140 % of t=0 | 107 % of t=0 | 73 % of t=0 | 75 % of t=0 | 67 % of t=0 | time of BG nadir after administration (diabetic ob/ob mice; 110 μg i.p.): 1 to 2 h; duration of effect (long-lasting effect) (diabetic ob/ob mice; 110 μg/mouse i.p.): > 8 h; effect on blood glucose (BG) levels (diabetic ob/ob mice; 110 μg/mouse i.p.): reduced BG levels; also recorded: sustained decrease in BG; also recorded: effectively lowers BG levels; time at which antidiabetic effect was observed (diabetic ob/ob mice; 110 μg/mouse i.p.): 60 min; time of maximal antidiabetic effect after administration (diabetic ob/ob mice; 110 μg/mouse i.p.): 2 to 4 h; effect on blood glucose (BG) levels (diabetic ob/ob mice; p.o., doses lower than 1100 μg/mouse): not at lower doses
